Reference: article PMC5431883, “Enhancing Specific Disruption of Intracellular Protein Complexes by Hydrocarbon Stapled Peptides Using Lipid Based Delivery” (Scientific Reports, 2017)
Entries after “also recorded” stand apart in the source; their conditions may differ. Where two headings read alike, the source gives them in different places. Positions of bridges follow the written chain, without caps; N, C: chain ends. Non-standard residues stand in square brackets, D forms with d. Residues, ends and D or L forms follow the SMILES beside them. R8 = C=CCCCCCC[C@@](C)(N)C(=O)O; S5 = C=CCCC[C@](C)(N)C(=O)O; Ahx = NCCCCCC(=O)O

Assays:
HEK293 cells = assay: Lactate dehydrogenase (LDH) release assay in HEK293 cells; type: cell-based; settings: 2 hour treatment, 12.5, 25 and 50 µM, normalised to 0.1% Triton X100 (Figure S1); for LDH release in HEK293 cells, absence of serum (in words): 0% FCS; for LDH release in HEK293 cells, high serum conditions (in words): 10% FCS
Protocol: T22 cells or HEK 293 cells were seeded into a 96-well plate at a cell density of 5000 cells per well. Cells were maintained in Dulbecco’s Minimal Eagle Medium (DMEM) with 10% fetal bovine serum (FBS) and 1% (v/v) penicillin/streptomycin. The cells were incubated for 24 hours followed by cell media removal and addition of 90 µl of DMEM either with or without 10% FCS. Cells were then treated with compounds/peptide for 2 hours in DMEM with or without 10% FBS. Final working concentration of DMSO was 1% v/v. Corresponding negative control wells with 1% DMSO only were also prepared. Cytosolic lactate dehydrogenase release was detected using the cytoTox 96® non-radioactive cytotoxicity Assay kit (Promega) as per manufacturer’s instructions. Measurements were carried out using an Envision multiplate reader (Perkin-Elmer). Maximum LDH release was defined as the amount of LDH released when cells were lysed in the presence of 0.1% TRITON X-100 and was used to normalize the results. […]
to induce LDH release in HEK293 cells after a 2 hour treatment period in A) the absence of FCS and B) the presence of 10% FCS. Compounds were tested at concentrations of 12.5 µM, 25 µM and 50 µM. Results were normalized to maximal LDH release as measured by treatment with 0.1% Triton X100.
(1 picture or pasted object on this page, not shown here)

T22 cells = assay: Lactate dehydrogenase (LDH) release assay in T22 cells; type: cell-based, murine; settings: for LDH Release (T22 Cells), 0% FCS (LDH50) / LDH Release (T22 Cells), 10% FCS (LDH50): 2 h treatment, normalised to 0.1% Triton X-100 lysis, 4 parameter fit to 10 point titration
Protocol: T22 cells or HEK 293 cells were seeded into a 96-well plate at a cell density of 5000 cells per well. Cells were maintained in Dulbecco’s Minimal Eagle Medium (DMEM) with 10% fetal bovine serum (FBS) and 1% (v/v) penicillin/streptomycin. The cells were incubated for 24 hours followed by cell media removal and addition of 90 µl of DMEM either with or without 10% FCS. Cells were then treated with compounds/peptide for 2 hours in DMEM with or without 10% FBS. Final working concentration of DMSO was 1% v/v. Corresponding negative control wells with 1% DMSO only were also prepared. Cytosolic lactate dehydrogenase release was detected using the cytoTox 96® non-radioactive cytotoxicity Assay kit (Promega) as per manufacturer’s instructions. Measurements were carried out using an Envision multiplate reader (Perkin-Elmer). Maximum LDH release was defined as the amount of LDH released when cells were lysed in the presence of 0.1% TRITON X-100 and was used to normalize the results.

Mdm2:p53 complex = biological target: T1, Mdm2:p53 complex (Homo sapiens, UniProt Q00987); assay: NanoBRET Mdm2:p53 live cell assay; type: cell-based; settings: HEK293 cells, 0% FCS versus 10% FCS
T1 construct: host or cells: HEK293
T1 sequence (Q00987 whole entry, one chain of several): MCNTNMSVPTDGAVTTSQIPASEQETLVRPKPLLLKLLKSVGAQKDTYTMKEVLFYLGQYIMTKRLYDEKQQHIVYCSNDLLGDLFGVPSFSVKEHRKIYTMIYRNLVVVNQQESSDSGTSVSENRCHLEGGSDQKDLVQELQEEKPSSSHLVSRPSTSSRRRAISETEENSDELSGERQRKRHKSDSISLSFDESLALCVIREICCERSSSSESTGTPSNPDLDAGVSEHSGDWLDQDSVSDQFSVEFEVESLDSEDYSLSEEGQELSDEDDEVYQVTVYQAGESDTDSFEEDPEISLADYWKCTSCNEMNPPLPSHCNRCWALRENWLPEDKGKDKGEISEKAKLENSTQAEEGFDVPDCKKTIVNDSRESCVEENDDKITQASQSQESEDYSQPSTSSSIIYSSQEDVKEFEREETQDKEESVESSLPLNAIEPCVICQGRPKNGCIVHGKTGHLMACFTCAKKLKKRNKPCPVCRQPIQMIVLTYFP
Protocol: all competitive types of experiments, it is assumed that [P]t > [L]st, otherwise considerable amounts of free labeled ligand would always be present and would interfere with measurements. Kd1 is the […]
experimentally determined as described in the previous paragraph. The FAM-labeled peptide was dissolved in dimethyl sulfoxide (DMSO) at 1 mM and diluted into experimental buffer. Readings were carried out with an Envision Multilabel Reader (PerkinElmer). Experiments were carried out […]
Tween 20 buffer. All titrations were carried out in triplicate. Curve-fitting was carried out using […]
Negative control titrations of the ligands under investigation were also carried out with the fluorescently labeled peptide (in the absence of MDM2) to ensure no interactions were occurring between the ligands and FAM-labeled peptide. […]
which would otherwise indicate an unintended interaction between the ligand and the FAM-labeled peptide to be displaced from the MDM2 binding site.
Nanobret Mdm2:p53 Cell Based Assay
HEK293 cells were seeded at a cell density of 250,000 cells per well into a 6 well plate and incubated overnight at 37 °C and 5% CO2 in DMEM with 0.3 mg/ml glutamine, 100 IU/ml penicillin, 100 μg/ml streptomycin and 10% fetal calf serum. Each well was transfected with a […]

Mdm2 (1-125) = biological target: T2, Mdm2 (1-125) (Homo sapiens, UniProt Q00987); assay: Mdm2 competitive fluorescence anisotropy assay (FAM-labeled 12/1 peptide displacement); type: binding
T2 construct: Purified MDM2 (1-125) protein was titrated against 50 nM carboxyfluorescein (FAM)-labeled; GST (N, cleaved yes); made in house; host or cells: E. coli BL21 DE3 (pGEX-6P-1)
T2 sequence (Q00987 1-125): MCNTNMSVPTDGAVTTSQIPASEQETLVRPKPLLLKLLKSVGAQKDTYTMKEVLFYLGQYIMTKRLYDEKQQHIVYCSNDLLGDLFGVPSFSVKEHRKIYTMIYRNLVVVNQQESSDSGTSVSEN

T22 p53 reporter cells = assay: p53 gene reporter assay (β-galactosidase) in T22 cells; type: cell-based, murine; settings: 18 h, 1% DMSO, normalised to 25 µM Nutlin, 4 parameter fit to 10 point titration
Protocol: T22 cells, which were stably transfected with a p53 responsive β-galactosidase reporter, were seeded into a 96-well plate at a cell density of 8000 cells per well. Cells were also maintained in Dulbecco’s Minimal Eagle Medium (DMEM) with 10% fetal calf serum (FCS) and 1% (v/v) penicillin/streptomycin. The cells were incubated for 24 hours and followed by cell media removal and replacement with 90 µl of fresh DMEM either containing 10% FCS or 0% FCS. 10 µl of each compound was then added directly to each well and incubated for 18 hours. Final working concentration of DMSO was 1% v/v. […] Measurements were carried out using an Envision multiplate reader (Perkin-Elmer). […] This was then used to normalize the experimental results.

LDH release in HEK293 cells, high serum conditions (in words) (HEK293 cells)	LDH Release (T22 Cells), 10% FCS (LDH50) (T22 cells)	improvement of NanoBRET IC50 in serum free conditions over high serum conditions (Mdm2:p53 complex)	improvement in affinity for Mdm2 over the library template sequence (sMTIDE-02) (Mdm2 (1-125))	Kd (Mdm2 (1-125); competitive fluorescence anisotropy, text refers to Table S1, read-out: Kd for binding to Mdm2 (as quoted in the text from Table S1))	Structure (SMILES)	LDH release in HEK293 cells, absence of serum (in words) (HEK293 cells)	LDH Release (T22 Cells), 0% FCS (LDH50) (T22 cells)	cytotoxicity (LDH leakage) in the library screen, absence of serum (in words) (T22 cells; absence of serum, within 2 hours after treatment)	EC50 (T22 p53 reporter cells; 0% FCS, read-out: P53 Activation (T22 Cells), 0% FCS (p53ACT50 / EC50))	EC50 (T22 p53 reporter cells; read-out: P53 Activation (T22 Cells), 10% FCS (p53ACT50 / EC50), 10% FCS)
absence of LDH release	No release	9 fold	–	–	CC(=O)N[C@H](C(=O)N[C@@H](CO)C(=O)N[C@@H](Cc1ccccc1)C(=O)N[C@]1(C)CCCCCCC=CCCC[C@@](C)(C(N)=O)NC(=O)[C@H](CC(C)C)NC(=O)[C@H](CC(C)C)NC(=O)[C@H](C)NC(=O)[C@H](Cc2c[nH]c3ccccc23)NC(=O)[C@H](Cc2ccc(O)cc2)NC(=O)[C@H](CCC(=O)O)NC1=O)[C@@H](C)O [sMTIDE-02]	induced significant amounts of LDH release	50.5 ± 1.7 µM	induced LDH leakage	–	–
absence of LDH release	No release	4.5 fold	2 fold	24.4 ± 2.3 nM	CC(=O)N[C@@H](CCCCN)C(=O)N[C@@H](CCCCN)C(=O)NCCCCCC(=O)N[C@H](C(=O)N[C@@H](CO)C(=O)N[C@@H](Cc1ccccc1)C(=O)N[C@]1(C)CCCCCCC=CCCC[C@@](C)(C(=O)N[C@@H](CCC(=O)O)C(=O)N[C@@H](CC(N)=O)C(=O)N[C@@H](Cc2ccccc2)C(N)=O)NC(=O)[C@H](CC(C)C)NC(=O)[C@H](CC(C)C)NC(=O)[C@H](C)NC(=O)[C@H](Cc2c[nH]c3ccccc23)NC(=O)[C@H](Cc2ccc(O)cc2)NC(=O)[C@H](CCC(=O)O)NC1=O)[C@@H](C)O [VIP-82] (Ac-KK[Ahx]TSF[R8]EYWALL[S5]ENF-NH2; staple 7-14)	remained inert	did not cause any measurable LDH release; also recorded: No release	–	800 ± 100 nM	10000 ± 100 nM
